Columns and labels:
[1] = Tail immersion assay of thermal pain sensation; assay type: in vivo, mouse; conditions: rimonabant 3 mg/kg before JZL184 16 mg/kg
Procedure: (§1) Behavioral Studies. […] A total of four groups of mice were used, with a sample size of 14 mice/group. Before injections, the mice were evaluated for baseline responses in the tail immersion test, as well for rectal temperatures. […] For determining hypomotility each mouse was placed in a clear Plexiglas box (42.7×21.0×20.4 cm) for a 10 min assessment period and Anymaze (Stoelting, Wood Dale, Ill.) software was used to determine the percentage of time spent immobile. Subjects were assessed for nociception in the tail immersion assay. Each mouse was placed head first into a small bag fabricated from absorbent under pads (VWR Scientific Products; 4 cm diameter, 11 cm length) with the tail out of the bag. The experimenter gently held the mouse and immersed approximately 1 cm of the tip of the tail into a water bath maintained at 56.0° C. The latency for the animal to withdraw its tail from the water within a 10 s cutoff time was scored. Catalepsy was evaluated using the bar test, in which the front paws of each subject were placed on a rod (0.75 cm diameter) that was elevated 4.5 cm above the surface. Mice that remained motionless with their paws on the bar for 10 s (with the exception of respiratory movements) were scored as cataleptic. […] Rectal temperature was determined by inserting a thermocouple probe 2.0 cm into the rectum and temperature was obtained from a telethermometer.

[2] = Acetic acid abdominal stretching (writhing) assay; assay type: in vivo, mouse; conditions: rimonabant 3 mg/kg before JZL184 16 mg/kg
Procedure: A second group of naïve subjects (n=10-11 mice/group) were evaluated in the acetic acid stretching assay. […] Acetic acid (0.6%) was injected intraperitoneally in a volume of 10 μl/g body weight 120 min after the second injection. The number of stretches (constriction of abdomen, turning of trunk (twist) and extension of the body and hind limbs) per mouse was counted during a 20-min period after the administration of acetic acid.

[3] = Rectal temperature (hypothermia); assay type: in vivo, mouse; conditions: rimonabant 3 mg/kg before JZL184 16 mg/kg
Procedure: as §1

[4] = Locomotor activity (hypomotility); assay type: in vivo, mouse
Procedure: as §1

[5] = Bar test (catalepsy, hyperreflexia); assay type: in vivo, mouse; conditions: rimonabant 3 mg/kg before JZL184 16 mg/kg
Procedure: as §1

[6] = test system: human cancer cell lines (C8161, SKOV3, 231MFP, MUM2C, OVCAR3); assay: Lipid measurements in cancer cells; assay type: cell-based; conditions: antagonist 1 μM, 4 hr
Procedure: Pharmacological inhibition of MAGL in cancer cells. Pharmacological inhibition studies were conducted as described previously (Chiang et al., Chem. Biol. 13:1041-1050, 2006). Cancer cells were maintained in RPMI medium 1640 with 10% (v/v) fetal calf serum at 37° C. in a humidified atmosphere of 5% CO2/95% air. At 80% confluency, cells were trypsinized and counted using a hemocytometer, and 1×10^6 cells were plated in 6 cm dishes (subconfluent). […] After incubation for 4 hr, the cells were harvested and analyzed by ABPP or LC-MS.
Lipid measurements in cancer cells. Lipid measurements were conducted similarly to protocols described previously (Chiang et al., 2006; supra). Cancer cells were grown in serum-free media for 4 hrs to minimize the contribution of serum-derived lipids to the cellular profiles. The cells (1×10^6 cells/6 cm dish, 80% confluency) were washed with twice with phosphate buffer saline (PBS), isolated by centrifugation at 1,400×g, and dounce-homogenized in 4 ml of a 2:1:1 mixture of chloroform:methanol:Tris buffer. Samples were homogenized in the presence of the following synthetic standards: C12:0 MAGE (10 nmol), C15:0 FFA (10 nmol). Organic and aqueous layers were separated by centrifugation at 2000×g for 5 min and the organic layer was collected. The aqueous layer was acidified (for metabolites such as LPA) by adding 5% formic acid, followed by the addition of 2 ml chloroform. The mixture was vortexed, and the organic layers were combined, dried down under N2 and dissolved in 100 μl chloroform, of which 30 μl was analyzed by LC-MS.
LC-MS analysis was performed by using an Agilent 1100 LC-MSD SL instrument. […] Mobile phase A was composed of a 95:5 ratio of water:methanol, and mobile phase B consisted of 2-propanol, methanol, and water in a 60:35:5 ratio. Solvent modifiers such as 0.1% formic acid and 0.1% ammonium hydroxide were used to assist ion formation as well as to improve the LC resolution in both positive and negative ionization modes, respectively. The flow rate for each run started at 0.1 ml/min for 5 min, to alleviate backpressure associated with injecting chloroform. The gradient started at 0% B and increased linearly to 100% B over the course of 45 min with a flow rate of 0.4 ml/min, followed by an isocratic gradient of 100% B for 17 min at 0.5 ml/min before equilibrating for 8 min at 0% B with a flow rate of 0.5 ml/min. MS analysis was performed with an electrospray ionization (ESI) source. The capillary voltage was set to 3.0 kV, and the fragmentor voltage was set to 100 V. The drying gas temperature was 350° C., the drying gas flow rate was 10 L/min, and the nebulizer pressure was 35 psi.
Lipidomic analysis was performed in both targeted and untargeted mode by LC-MS analysis. Standard lipid classes were quantitated by targeting using selected ion monitoring (SIM) (except for very high-abundance metabolites which were quantitated by untargeted analysis) and identities of metabolites were confirmed by coelution of metabolites with their respective standards and mass accuracy to within 10 ppm as determined with an accurate mass Agilent 6520 Accurate Mass QTOF-MS-MS. These lipids were quantified by measuring the area under the peak and were normalized to an internal standard (C12:0 MAGE in positive mode or C15:0 FFA in negative mode). […]

[7] = test system: human cancer cell lines (C8161, SKOV3, 231MFP, MUM2C, OVCAR3); assay: Cell migration assay (Transwell); assay type: cell-based; conditions: antagonist 1 μM, 4 hr
Procedure: Cell migration, cell survival, and invasion studies. Migration assays were performed in Transwell chambers (Corning) with 8 μm pore-sized membranes coated with 10 μg/ml collagen for 4 h at 37° C. A total of 24 hr before the start of the migration assay, cancer cell lines were plated at a concentration of 1×10^6 cells per 6 cm dish. At the start of the migration assay, cells were harvested by washing two times with PBS and were then serum starved in serum-free media for 4 hr. Inhibitor, lipid or vehicle (0.1% DMSO) were preincubated with the cells during this 4 h time. Serum-starved cells were trypsinized, spun at 1400×g for 3 min, resuspended, and counted. 50,000 cells were seeded in the upper chamber of the transwells in 200 μl serum-free media (containing inhibitor, lipid or vehicle). Inhibitor, lipid or vehicle was also added to the lower chamber, and cells were allowed to migrate for 5 h (for C8161 and 231MFP cells) or 20 hr (SKOV3, MUM2C and OVCAR3 cells). The filters were then fixed and stained with Diff-Quik (Dade Behring). Cells that had not migrated through the chamber were removed with a cotton ball. The cells that migrated were counted at a magnification of 400×, and 4 fields were independently counted from each migration chamber. An average of cells in 4 fields for one migration chamber represents n=1.

FAAH = target: T1, FAAH (Mus musculus, UniProt O08914); assay: FAAH activity of brain membranes from treated mice (competitive ABPP, oleamide substrate assay); assay type: in vivo; conditions: URB597 10 mg/kg, i.p.
T1 construct: from tissue; host or cells: mouse brain membrane fraction
T1 sequence (O08914 1-579): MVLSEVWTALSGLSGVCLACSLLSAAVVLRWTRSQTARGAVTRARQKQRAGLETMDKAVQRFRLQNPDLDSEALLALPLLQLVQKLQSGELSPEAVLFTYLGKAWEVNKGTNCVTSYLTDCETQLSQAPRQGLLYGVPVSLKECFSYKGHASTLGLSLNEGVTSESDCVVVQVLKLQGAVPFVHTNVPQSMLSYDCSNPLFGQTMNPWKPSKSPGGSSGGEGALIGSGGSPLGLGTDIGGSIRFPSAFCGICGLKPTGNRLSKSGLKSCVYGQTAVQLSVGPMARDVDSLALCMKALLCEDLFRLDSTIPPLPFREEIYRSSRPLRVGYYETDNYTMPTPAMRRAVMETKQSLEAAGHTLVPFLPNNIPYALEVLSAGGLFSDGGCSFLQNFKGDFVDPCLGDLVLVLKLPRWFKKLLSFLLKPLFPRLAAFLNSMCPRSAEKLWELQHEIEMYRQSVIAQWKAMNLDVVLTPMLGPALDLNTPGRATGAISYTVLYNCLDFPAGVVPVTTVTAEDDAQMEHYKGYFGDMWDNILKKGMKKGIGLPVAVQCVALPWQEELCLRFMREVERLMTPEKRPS
Procedure: Enzyme activity assays. Briefly, 2-AG (100 μM) was incubated with mouse brain membrane (20 μg) or recombinant MAGL in COS7 cells (0.1 μg) in PBS (200 μl) at room temperature for 10 min. The reactions were quenched by the addition of 500 μL 2:1 v/v CHCl3:MeOH, doped with 0.5 nmol PDA, vortexed, then centrifuged (1,400×g, 3 min) to separate the phases. 30 ul of the resultant organic phase was injected onto an Agilent 1100 series LC-MSD SL instrument. […] Mobile phase A was composed of 95:5 v/v H2O:MeOH, and mobile phase B was composed of 60:35:5 v/v/v i-PrOH:MeOH:H2O. 0.1% ammonium hydroxide was included to assist in ion formation in negative ionization mode. […] Hydrolysis products were quantified by measuring the area under the peak in comparison to the PDA standard. ^13C-oleamide or AEA hydrolysis activity was determined using mouse brain membrane (50 μg) or recombinant FAAH in COST cells (5 μg), respectively, in PBS (100 μl). […] DAGLβ hydrolysis activity was determined using recombinant DAGLβ in HEK293 cells (50 μg) in PBS (100 μl). […]
Competitive activity-based protein profiling (ABPP) experiments. […] After 30 min at room temperature, the reactions were quenched with 4×SDS-PAGE loading buffer, boiled for 5 min at 90° C., subjected to SDS-PAGE, and visualized in-gel using a flatbed fluorescence scanner. […]

[8] = test system: brain levels of 2-AG, arachidonic acid, NAEs, MAGs, free fatty acids; assay: Measurement of brain lipids in treated mice; assay type: in vivo, mouse; conditions: URB597 10 mg/kg, i.p.
Procedure: Measurement of brain lipids. One half brain was weighed and subsequently Dounce homogenized in 2:1:1 v/v/v CHCl3:MeOH:Tris pH 8.0 (8 ml) containing standards for N-acylethanolamine (NAE), monoacylglycerol (MAG), or free fatty acid (FFA) measurements (200 pmol d4-OEA, 20 pmol d4-AEA, 400 pmol C15:0-MAG, and 4 nmol PDA). The mixture was vortexed and then centrifuged (1,400×g, 10 min). The organic layer was removed, CHCl3 was added until the final volume was again 8 ml, and the extraction was repeated. The combined organic extracts were dried under a stream of N2 and resolubilized in 2:1 v/v CHCl3:MeOH (120 μl). 30 uL and 15 uL of resolubilized lipid were injected for positive mode (MAG and NAE) and negative mode (free fatty acid) measurements, respectively. Lipid measurements were performed by LC-MS using the same instrument and solvents as described above. Solvent modifiers such as 0.1% formic acid or 0.1% ammonium hydroxide were included to assist in ion formation in positive and negative ionization mode, respectively. For positive mode measurements, the flow rate for each run started at 0.1 ml/min for 5 min. […] MAGs, NAEs, and FFAs were quantified by measuring the area under the peak in comparison to the C15:0 or deuterated standards. […]

Row | SMILES | effect of rimonabant pre-treatment on JZL184 analgesia, tail immersion [1] | effect of rimonabant pre-treatment on JZL184 analgesia, acetic acid writhing [2] | effect of rimonabant on JZL184 hypothermic effect [3] | movement, rimonabant on its own ([4]; rimonabant 3 mg/kg) | effect of rimonabant on JZL184-induced immobility ([4]; rimonabant 3 mg/kg before JZL184 16 mg/kg) | effect of rimonabant on JZL184 hyperreflexia effect [5] | FFA levels in shControl and shMAGL cancer cells [6] | migratory defect in shMAGL cancer cells [7] | brain FAAH activity (FAAH) | brain 2-AG or arachidonic acid levels [8] | brain anandamide and other NAEs [8]
1 | Cc1c(C(=O)NN2CCCCC2)nn(-c2ccc(Cl)cc2Cl)c1-c1ccc(Cl)cc1 [rimonabant] | blocked | blocked | completely blocked | significant reductions in movement | partial blockade | completely blocked | unchanged | not rescued | – | – | –
2 | NC(=O)c1cccc(-c2cccc(OC(=O)NC3CCCCC3)c2)c1 [URB597] | – | – | – | – | – | – | – | – | completely inhibited | without altering | significant elevations

Source: patent US8772318B2, “Methods and compositions related to targeting monoacylglycerol lipase” (The Scripps Research Institute, priority 2008, dated 2014)
